Reference: patent publication US20250290117A1, “MOLECULAR PHENOTYPIC ANTIMICROBIAL SUSCEPTIBILITY TESTING” (priority 2024, published 2025)

Key:
P. aeruginosa [1] = assay: Molecular phenotypic antimicrobial susceptibility test with direct PCR (no extraction DNA purification step); assay type: cell-based, Pseudomonas aeruginosa; conditions: for Ct at Sensitive Breakpoint: P. aeruginosa isolate MRSN1938, Ct at control (average) 12.031; for Molecular Antimicrobial Susceptibility Result: P. aeruginosa isolate MRSN1938, at sensitive breakpoint
Protocol: (§1) Detection of Molecular Phenotypic Antimicrobial Susceptibility. Disclosed herein are the methods for the detection of phenotypic antimicrobial susceptibility via molecular methods. The present invention describes how a specimen 100 with a known microbial load is incubated and then exposed to a panel of antimicrobial agents to determine sensitivity (prevention of growth) or resistance (allowance of growth) to the specific antimicrobial agents tested utilizing molecular methods.
(§2) Sample Collection. Specimens 100 are collected from patients using sterile collection processes that are employed in routine clinical care. Specimens are transported to the testing facility in boric acid preservative. Specimens 100 are subsequently divided into a first sample 104 and a second sample 108.
(§3) Preparation of the Specimens for Testing. The specimens 100 are put through a pathogen identification process using PCR technology (e.g., using the first sample 104). The process for pathogen isolation includes steps of harvesting the pathogen (e.g., via centrifugation), isolating pathogen DNA via a DNA isolation and/or purification kit, and performing PCR on the pathogen DNA via PCR components (e.g., primers, enzymes, buffers) as would be known to the skilled artisan. Simultaneously, an additional aliquot of the same specimen (e.g., the second sample 108) is placed with liquid culture media and incubated for 4-6 hours. This aliquot is used for antimicrobial susceptibility testing if indicated based on the pathogen detection results. After pathogen identification is completed and if more than 10,000 cells/mL of bacteria (e.g., eligible bacteria) are detected in the source specimen, the second sample 108 then enters the antimicrobial susceptibility phase of testing. Specimens 100 with lower pathogen loads could also be utilized in the antibiotic susceptibility phase of testing with or without a longer incubation period.
(§4) Preparation of Antimicrobial Susceptibility Testing Plates. Antimicrobial solutions are prepared at known concentrations. The specific antimicrobials and their concentrations are selected based on the pathogen of interest and the described antimicrobial resistance breakpoints for that specimen pathogen and antimicrobial combination. These antimicrobials have been selected based on those commonly utilized by healthcare providers in routine clinical care for the specific type of suspected infection. The number and types of antimicrobials utilized can be customized based on the infection source, pathogen detected, patient-specific factors such as allergies or other health conditions (e.g., chronic kidney disease or concurrent medication use), or healthcare provider preferences such as antimicrobial availability or cost.
(§5) The antimicrobial solutions are prepared in liquid culture media (such as Muller Hinton Broth) to achieve the desired antimicrobial concentration and are then stored at −80° C. until use. For a given specimen, each antimicrobial is tested at a single or multiple antimicrobial concentration(s) which is its established breakpoints for sensitivity. The antimicrobial solutions are prepared and plated out for each specific pathogen. This allows ease of use on the day of testing after defrosting the plate 112. Table 1, which illustrates the results of molecular phenotypic antimicrobial susceptibility testing when more than one organism is present in the source specimen, provides an example of an antimicrobial plate 112 prepared for this purpose. Of note, control wells containing only culture media are present on all plates 112. This allows for evaluation of pathogen load when no antimicrobial is present.
(§6) Specimen Exposure to Antimicrobial Agents. The 1 mL aliquot of the specimen 100 previously mixed with culture media and incubated is obtained. Using optical density measurements as a guide, the specimen 100 is diluted to 0.5 McFarland. […]

[2] = test system: Staphylococcus epidermidis; assay: Molecular phenotypic antimicrobial susceptibility test (semi-quantitative PCR after antimicrobial exposure; extraction/DNA purification prior to PCR); assay type: cell-based
Protocol: as §1, §2, §3, §4, §5, §6

P. aeruginosa [3] = assay: Traditional culture-based antimicrobial susceptibility test; assay type: cell-based, Pseudomonas aeruginosa; conditions: P. aeruginosa isolate MRSN1938
Protocol: (§7) Table 5 illustrates the results of an example antimicrobial agent susceptibility test of the current application versus a traditional culture-based antimicrobial agent susceptibility test for multiple specimens with different pathogens, in accordance with one or more embodiments of the disclosure. These specimens were tested with direct PCR (e.g., no extraction DNA purification step prior to PCR). As in Tables 1, 2, and 3, the results of the test of the current application are similar to the results from the traditional test.
(§8) Result Reporting to Healthcare Providers. The results from the antimicrobial exposure are reported to the ordering healthcare provider. This information can be utilized by the healthcare provider when selecting an antimicrobial regimen for their individual patient based on these individual specimen results and patient specific factors. […] The current standard of care for antimicrobial susceptibility testing involves the growth, isolation, and exposure of pathogens to antimicrobials. This traditional culture and sensitivity process can take multiple days to obtain results, limiting the ability of healthcare providers to receive timely results to make actionable changes in patient care or management. Healthcare providers desire a method to obtain antimicrobial susceptibility results with quicker turn-around-time. This application discloses a molecular-based phenotypic antimicrobial susceptibility method which involves pathogen exposure to a panel of antimicrobial agents at their specified minimum inhibitory concentration breakpoints for sensitivity. This method allows for more timely antimicrobial susceptibility results.

[4] = test system: Staphylococcus epidermidis; assay: as above; assay type: cell-based
From the text: as §8, with “Table 1 illustrates the results of an example antimicrobial agent susceptibility test of the current application versus a traditional culture-based antimicrobial agent susceptibility test for Staphylococcus epidermidis. This specimen underwent extraction or DNA purification prior to PCR. The results of the test of the current application are similar to the results from the traditional test, with the results from the test of the current application being reportable considerably earlier than the test of the traditional test due no pathogen isolation requirement and due to less incubation time being required for the test of the current application. Result” for “Result”

S. aureus = assay: as above; assay type: cell-based, Staphylococcus aureus; conditions: S. aureus isolate NR-46412 HIP13170
Protocol: as §7, §8

[5] = S. epidermidis isolate 1, Ct at control (average) 10.611
[6] = S. epidermidis isolate 1, at sensitive breakpoint
[7] = S. epidermidis isolate 2, Ct at control (average) 11.861
[8] = S. epidermidis isolate 2, at sensitive breakpoint
[9] = S. epidermidis isolate 3, Ct at control (average) 12.941
[10] = S. epidermidis isolate 3, at sensitive breakpoint
[11] = S. epidermidis isolate 4, Ct at control (average) 11.861
[12] = S. epidermidis isolate 4, at sensitive breakpoint
[13] = S. epidermidis isolate 5, Ct at control (average) 12.941
[14] = S. epidermidis isolate 5, at sensitive breakpoint

| Compound | Ct at Sensitive Breakpoint (P. aeruginosa [1]) | Molecular Antimicrobial Susceptibility Result (P. aeruginosa [1]) | Ct at Sensitive Breakpoint [2, 5] | Molecular Antimicrobial Susceptibility Result [2, 6] | Ct at Sensitive Breakpoint [2, 7] | Molecular Antimicrobial Susceptibility Result [2, 8] | Ct at Sensitive Breakpoint [2, 9] | Molecular Antimicrobial Susceptibility Result [2, 10] | Ct at Sensitive Breakpoint [2, 11] | Molecular Antimicrobial Susceptibility Result [2, 12] | Ct at Sensitive Breakpoint [2, 13] | Molecular Antimicrobial Susceptibility Result [2, 14] | Traditional Culture Result (P. aeruginosa [3]) | Traditional Culture Result ([4]; S. epidermidis isolate 1) | Traditional Culture Result ([4]; S. epidermidis isolate 2) | Traditional Culture Result ([4]; S. epidermidis isolate 3) | Traditional Culture Result ([4]; S. epidermidis isolate 4) | Traditional Culture Result ([4]; S. epidermidis isolate 5) | Traditional Culture Result (S. aureus) |
| --- | --- | --- | --- | --- | --- | --- | --- | --- | --- | --- | --- | --- | --- | --- | --- | --- | --- | --- | --- |
| CO/N=C(\C(=O)N[C@@H]1C(=O)N2C(C(=O)[O-])=C(C[N+]3(C)CCCC3)CS[C@H]12)c1csc(N)n1 [Cefepime] | 13.373 | Sensitive (Antimicrobial wells with pathogen load detected below the control wells (typically >2 cycle thresholds later) may be reported as Sensitive) | 11.785 | Resistant | 8.669 | Resistant | 8.646 | Resistant | 8.418 | Resistant | 8.474 | Resistant | Sensitive | Resistant | Resistant | Resistant | Resistant | Resistant |  |
| CO[C@@]1(NC(=O)Cc2cccs2)C(=O)N2C(C(=O)O)=C(COC(N)=O)CS[C@@H]21 [Cefoxitin] |  |  |  |  |  |  |  |  |  |  |  |  |  |  |  |  |  |  | Resistant |
| O=C(O)c1cn(C2CC2)c2cc(N3CCNCC3)c(F)cc2c1=O [Ciprofloxacin] | 12.239 | Resistant |  |  |  |  |  |  |  |  |  |  | Resistant |  |  |  |  |  | Resistant |
| C[C@H]1COc2c(N3CCN(C)CC3)c(F)cc3c(=O)c(C(=O)O)cn1c23 [Levofloxacin] | 12.853 | Resistant |  |  |  |  |  |  |  |  |  |  |  |  |  |  |  |  |  |
| C[C@@H](O)[C@H]1C(=O)N2C(C(=O)O)=C(S[C@@H]3CN[C@H](C(=O)N(C)C)C3)[C@H](C)[C@H]12 [Meropenem] | 12.404 | Resistant |  |  |  |  |  |  |  |  |  |  | Resistant* |  |  |  |  |  |  |
| CN[C@H](CC(C)C)C(=O)N[C@H]1C(=O)N[C@@H](CC(N)=O)C(=O)N[C@H]2C(=O)N[C@H]3C(=O)N[C@H](C(=O)N[C@H](C(=O)O)c4cc(O)cc(O)c4-c4cc3ccc4O)[C@H](O)c3ccc(c(Cl)c3)Oc3cc2cc(c3O[C@@H]2O[C@H](CO)[C@@H](O)[C@H](O)[C@H]2O[C@H]2C[C@](C)(N)[C@H](O)[C@H](C)O2)Oc2ccc(cc2Cl)[C@H]1O [Vancomycin] |  |  | 12.950 | Sensitive (Antimicrobial wells with pathogen load detected below the control wells (typically >2 cycle thresholds later) may be reported as Sensitive) | 18.235 | Sensitive (Antimicrobial wells with pathogen load detected below the control wells (typically >2 cycle thresholds later) may be reported as Sensitive) | 18.173 | Sensitive (Antimicrobial wells with pathogen load detected below the control wells (typically >2 cycle thresholds later) may be reported as Sensitive) | 20.001 | Sensitive (Antimicrobial wells with pathogen load detected below the control wells (typically >2 cycle thresholds later) may be reported as Sensitive) | 8.719 | Resistant |  | Sensitive | Sensitive | Sensitive | Sensitive | Sensitive | Resistant |
| Gentamicin |  |  |  |  |  |  |  |  |  |  |  |  |  |  |  |  |  |  | Resistant |
| Piperacillin/Tazobactam | 13.375 | Sensitive (Antimicrobial wells with pathogen load detected below the control wells (typically >2 cycle thresholds later) may be reported as Sensitive) |  |  |  |  |  |  |  |  |  |  | Sensitive |  |  |  |  |  |  |
| Trimethoprim/Sulfamethoxazole [TMP/SMX] |  |  | 10.79 | Resistant | 10.503 | Resistant | 11.341 | Resistant | 10.970 | Resistant | 12.620 | Resistant |  | Resistant | Resistant | Resistant | Resistant | Resistant | Sensitive |
